# Source: PubChem BioAssay AID1963426 (Molecular Pharmacology Branch, DTP, NCI, 2024)
# Test system: 186277-243-T-J2-PDC complex spheroid growth, % test/control
# Assay: Anticancer human tumor 186277-243-T-J2-PDC patient-derived colon adenocarcinoma cell line growth inhibition [Asc]
# Conditions: for IC50: curve of first compound; for viability, T/C: stronger effect = lower value
# Description: Multicellular complex tumor spheroid response to apoptosis pathway targeting inhibitors Alrizomadlin, Pelcitoclax, and Dasminapant in combination with a variety of drugs and investigational agents in selected tumor cell lines
# The MDM2 inhibitor alrizomadlin, the Bcl-2/Bcl-xL inhibitor pelcitoclax, and the IAPs inhibitor dasminapant were evaluated both individually and in combination with standard of care and investigational anticancer small molecules within a complex spheroid model of solid tumors. . Complex spheroids include a stromal component modeled by human endothelial cells (HUVEC) and fibroblasts modeled by human mesenchymal stem cells (MSCs). The concentration ranges selected for each drug and investigational agent were based upon clinically achievable concentrations if the clinical Cmax of the agent was known.
# Compounds. The drugs and investigational agents: alrizomadlin (APG-115; NSC831270), pelcitoclax (APG-1252; NSC835773), dasminapant (APG-1387;NSC834197), TAK-243 (NSC785004), copanlisib (NSC809693), olaparib (NSC753686), talazoparib (NSC767125), cobimetinib (NSC 768068), eltanexor (KPT-8602, NSC 794443), abemaciclib (NSC 768073), sotorasib (NSC818433), adagrasib (NSC 831453), MRTX-1133 (NSC 836407), Iadademestat (ORY1001, NSC 806812), and RMC-4630 (NSC839698), were obtained from the NCI Developmental Therapeutics Program Chemical Repository. The FDA-approved anticancer drug set is available from the Developmental Therapeutics Program at https://dtp.cancer.gov/organization/dscb/obtaining/available plates.htm. […] The stock solutions were prepared in dimethyl sulfoxide (DMSO, Sigma-Aldrich, St. Louis, MO, cat. D2650) at 800-fold the tested concentration and stored at -70 degrees C prior to their use. All drugs and investigational agents were tested over a range starting from a high concentration at or near the clinical Cmax and decreasing in half-log increments. If the clinical Cmax for an agent had not been determined, the highest concentration tested was 10 microM.
# The patient-derived cancer (PDC) cell lines include five colon adenocarcinomas: 186277-243-T-J2-PDC, 616215-338-R-J1-PDC, 439559-082-T-J2-PDC, 463943-066-T-J2-PDC, and 519858-162-T-J1-PDC; three pancreatic carcinomas: 323965-272-R-J2-PDC, 521955-158-R6-J3-PDC, and 521955-158-R2-J5-PDC; two uterine sarcomas: 327498-152-R-J2-PDC and 993429-296-R-J1-PDC; two rhabdomyosarcomas: 755483-174-R-J1-PDC and 772245-204-R-J1-PDC; two soft tissue sarcomas: 126254-015-R-J1-PDC and 494315-158-R-J1-PDC; two malignant fibrous histiocytomas: 317291-083-R-J1-PDC and 596521-263-R-J1-PDC; two breast carcinomas: 171881-019-R-J1-PDC and 885512-296-R-J2-PDC; and one ovarian carcinoma: 6556581-035-R-J-PDC were obtained from the NCI PDMR, (https://pdmr.cancer.gov). The established cell lines HSSY-2 synovial sarcoma (RRID:CVCL 8719), SYO-1 synovial sarcoma (RRID:CVCL_7146), MPNST malignant peripheral neural sheath tumor were obtained from the Sloan Kettering Institute. The following established cell lines were purchased from the American Type Culture Collection (ATCC, Manassas, VA), Sor the received from the NCI repository:, PANC-1 pancreatic carcinoma (CRL-1469, RRID:CVCL_0480), OVCAR-5 ovarian carcinoma (RRID:CVCL_1628), OVCAR-8 ovarian carcinoma (RRID:CVCL_1629), , MCF-7 breast carcinoma (CRL-12584, RRID:CVCL_0031), MDA-MB-231 breast carcinoma (CRL-12532, RRID:CVCL_0062), NCI-H1876 small cell lung carcinoma (CRL-5902, RRID:CVCL_1503), NCI-H510A small cell lung carcinoma (HTB-184, RRID:CVCL_1565), NCI-H1417 (CRL-5869, RRID:CVCL_1469), and NCI-H196 small cell lung carcinoma (CRL-5823, RRID:CVCL_1509). Dr. Peter Houghton (Greehey Children's Cancer Research Institute, University of Texas Health Science Center, San Antonio, TX) provided Rh-18 rhabdomyosarcoma (RRID:CVCL_1659). Pooled donor human umbilical vein endothelial cells (HUVEC, Lonza, cat. CC-2519) and human mesenchymal stem cells (hMSC, Lonza, cat. PT-2501) were purchased from Lonza (Walkersville, MD).
# Cell Culture. […]
# 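Note: spheroids exposed to agents for 7 days.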
# 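Throughout, for viability, T/C: 100% = DMSO vehicle control wells.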
structure (smiles),measurement,setting,value
C=C(F)C(=O)N1CCN(c2nc(OCC3CCCN3C)nc3c2CCN(c2cccc4cccc(Cl)c24)C3)CC1CC#N (stereo not given) + Cc1c(S(C)(=O)=O)c(-c2cc(F)cc(N3CCN(c4ccc(NS(=O)(=O)c5ccc(NC(CCN6CCC(C(=O)OCCCP(=O)(O)O)CC6)CSc6ccccc6)c(S(=O)(=O)C(F)(F)F)c5)cc4)CC3)c2)c(-c2ccc(Cl)cc2)n1C(C)C,IC50,second compound 0.1 µM,5.55 µM
same,IC50,second compound 0.316 µM,4.4 µM
same,IC50,second compound 1 µM,2.59 µM
same,IC50,second compound 3.16 µM,2.18 µM
same,IC50,second compound 10 µM,2.37 µM
same,"viability, T/C","second compound 0.1 µM, first compound 0.0316 µM",109%
same,"viability, T/C","second compound 0.1 µM, first compound 0.1 µM",111%
same,"viability, T/C","second compound 0.1 µM, first compound 0.316 µM",110%
same,"viability, T/C","second compound 0.1 µM, first compound 1 µM",110%
same,"viability, T/C","second compound 0.1 µM, first compound 3.16 µM",97.2%
same,"viability, T/C","second compound 0.1 µM, first compound 10 µM",0.54%
same,"viability, T/C","second compound 0.316 µM, first compound 0.0316 µM",106%
same,"viability, T/C","second compound 0.316 µM, first compound 0.1 µM",109%
same,"viability, T/C","second compound 0.316 µM, first compound 0.316 µM",108%
same,"viability, T/C","second compound 0.316 µM, first compound 1 µM",111%
same,"viability, T/C","second compound 0.316 µM, first compound 3.16 µM",70%
same,"viability, T/C","second compound 0.316 µM, first compound 10 µM",0.32%
same,"viability, T/C","second compound 1 µM, first compound 0.0316 µM",115%
same,"viability, T/C","second compound 1 µM, first compound 0.1 µM",119%
same,"viability, T/C","second compound 1 µM, first compound 0.316 µM",107%
same,"viability, T/C","second compound 1 µM, first compound 1 µM",124%
same,"viability, T/C","second compound 1 µM, first compound 3.16 µM",36.1%
same,"viability, T/C","second compound 1 µM, first compound 10 µM",0.51%
same,"viability, T/C","second compound 3.16 µM, first compound 0.0316 µM",105%
same,"viability, T/C","second compound 3.16 µM, first compound 0.1 µM",108%
same,"viability, T/C","second compound 3.16 µM, first compound 0.316 µM",112%
same,"viability, T/C","second compound 3.16 µM, first compound 1 µM",104%
same,"viability, T/C","second compound 3.16 µM, first compound 3.16 µM",24.2%
same,"viability, T/C","second compound 3.16 µM, first compound 10 µM",0.16%
same,"viability, T/C","second compound 10 µM, first compound 0.0316 µM",120%
same,"viability, T/C","second compound 10 µM, first compound 0.1 µM",106%
same,"viability, T/C","second compound 10 µM, first compound 0.316 µM",116%
same,"viability, T/C","second compound 10 µM, first compound 1 µM",107%
same,"viability, T/C","second compound 10 µM, first compound 3.16 µM",31.2%
same,"viability, T/C","second compound 10 µM, first compound 10 µM",0.25%
